Source: the RepoRT retention time repository (doi:10.1093/pcp/pcn183)
Where a name gives a salt, the structure may show the parent alone.

Experiment: RP, Waters ACQUITY UPLC BEH C18, 38 °C, 0.24 mL/min; A: water + 0.1% formic acid, pH 3; B: acetonitrile + 0.1% formic acid, pH 3; gradient (min/%B) 0/0 0.25/0 0.4/9 0.8/17 1.9/100 2.1/100 2.11/0 3/0
Settings: stereoisomer not certain

SMILES	LC retention time [min]
O=C(C=Cc1ccc(O)cc1)OCC1OC(Oc2c(-c3ccc(O)cc3)oc3cc(O)cc(O)c3c2=O)C(O)C(O)C1O (stereo unspecified) [Tiliroside]	1.57
CC1OC(OCC2OC(Oc3cc4c(O)cc(O)cc4[o+]c3-c3cc(O)c(O)c(O)c3)C(O)C(O)C2O)C(O)C(O)C1O (stereo unspecified)	1.15
OCC1OC(OC2(CO)OC(CO)C(O)C2O)C(O)C(O)C1O (stereo unspecified) [Sucrose]	0.22
Nc1ccc(C(=O)O)cc1 [4-Aminobenzoic acid]	1.13
O=C(O)C(O)c1cccc(O)c1 (stereo unspecified) [3-Hydroxymandelic acid]	1
COc1cc(C=CCO)cc(OC)c1O [Sinapyl alcohol]	2.13
O=C(O)C(O)C(O)C(O)C(O)C(=O)O (stereo unspecified) [mucic acid]	2.13
O=C(O)/C=C/c1ccccc1 [trans-Cinnamic acid]	1.64
O=c1cccc[nH]1 [2-Hydroxypyridine]	0.68
O=c1cc[nH]cc1 [4-Hydroxypyridine]	0.25
CC(CCC(=O)O)C(=O)O (stereo unspecified) [2-Methylglutaric Acid]	1.16
C[N+](C)(C)CC(=O)[O-] [Betaine]	0.17
Cc1ncc(C[n+]2csc(CCO)c2C)c(N)n1 [Thiamine hydrochloride]	0.19
CC(CN)C(=O)O (racemic) [DL-3-Aminoisobutyric acid]	0.19
O=c1cc(-c2ccc(O)c(O)c2)oc2cc(OC3OC(CO)C(O)C(O)C3O)cc(O)c12 (stereo unspecified) [luteolin-7-O-glucoside]	1.41
CC(N)CC(=O)O (racemic) [DL-beta-Aminobutyric acid]	0.18
CS(=O)(=O)O [Methanesulfonic acid solution]	0.17
NCC(N)C(=O)O (racemic) [DL-2,3-Diaminopropionic acid monohydrochloride]	0.15
CCC[C@H](N)C(=O)O [L-Norvaline]	0.25
C[N+](C)(C)CCOP(=O)([O-])OCC(O)CO (stereo unspecified) [sn-Glycero-3-phosphocholine 1:1 cadmium chloride adduct]	0.17
O=C(O)/C=C/c1ccc(O)cc1 [4-Coumaric acid]	1.41
N[C@H](CO)Cc1cnc[nH]1 [L-Histidinol dihydrochloride]	0.14

SMILES	LC retention time [min]
NCC(CC(=O)O)c1ccc(Cl)cc1 (racemic) [(+-)-Baclofen]	1.24
O=CC(O)CO (racemic) [DL-Glyceraldehyde]	0.17
C[S+](CCC(N)C(=O)[O-])CC1OC(n2cnc3c(N)ncnc32)C(O)C1O [S-(5'-Adenosyl)-L-methionine chloride]	0.19
CS(=O)(=O)CCC(N)C(=O)O [L-Methionine sulfone]	0.18
OCC1OC(Oc2cc3c(OC4OC(CO)C(O)C(O)C4O)cc(O)cc3[o+]c2-c2ccc(O)c(O)c2)C(O)C(O)C1O (stereo unspecified) [cyanidin-3,5-di-O-glucoside chloride]	1.11
O=C1CCNC(=O)N1 [5,6-Dihydrouracil]	0.2
CC(N)(CO)C(=O)O (racemic) [alpha-Methyl-DL-serine]	0.17
CSCC1OC(n2cnc3c(N)ncnc32)C(O)C1O (stereo unspecified) [5'-Deoxy-5'-Methylthioadenosine]	1.14
NCCCCC(=O)O [5-Aminovaleric acid]	0.23
Nc1ncnc2nc[nH]c12 [Adenine]	0.32
NCCCCN=C(N)N [Agmatine sulfate salt]	0.15
NOCC(=O)O [Aminooxyacetic acid Hemihydrochloride]	0.17
NC12CC3CC(CC(C3)C1)C2 [Amantadine hydrochloride]	1.28
O=C(O)C1(O)CC(O)C(O)C(O)C1 [D-(-)-Quinic acid]	0.19
CC(CO)CCNc1ncnc2nc[nH]c12 (racemic) [DL-Dihydrozeatin]	1.11
CCC=CCC1C(=O)CCC1CC(=O)OC (stereo unspecified) [Methyl Jasmonate]	1.93
OCC(O)C(O)C(O)CO (stereo unspecified)	0.17
COc1cc(-c2[o+]c3cc(O)cc(O)c3cc2O)cc(OC)c1O [Malvidin Chloride]	2.15
Cc1cn(C2CC(O)C(CO)O2)c(=O)[nH]c1=O (stereo unspecified) [Thymidine]	1.11
C=C(CC(=O)O)C(=O)O [Itaconic acid]	1.09
O=C(O)CCCCCCCCC(=O)O [Sebacic acid]	1.58
COc1cc(-c2[o+]c3cc(O)cc(OC4OC(CO)C(O)C(O)C4O)c3cc2OC2OC(COC3OC(C)C(OC(=O)C=Cc4ccc(O)cc4)C(O)C3O)C(O)C(O)C2O)cc(O)c1O (stereo unspecified)	1.36

SMILES	LC retention time [min]
COc1cccc(C=CC(=O)O)c1 [3-Methoxycinnamic acid]	1.67
CCCCCCC(=O)O [n-heptanoic acid]	0.29
O=c1[nH]c(=O)c2cn[nH]c2[nH]1 [Oxypurinol]	0.7
O=P(O)(O)OCC1OC(O)CC1O (stereo unspecified) [2-Deoxyribose-5-phosphate sodium salt]	0.18
Nc1ccc(C(=O)NCC(=O)O)cc1 [4-Aminohippurate]	0.93
COc1ccccc1C(=O)O [o-Anisic Acid]	1.47
CN(C)C=O [N,N-Dimethylformamide(DMF)]	0.51
O=C(O)c1ccc(O)c(O)c1 [3,4-Dihydroxybenzoic acid]	1.14
Nc1ncnc2c1ncn2C1OC(CO)C(O)C1O (stereo unspecified) [Adenosine]	1.06
C[N+](C)(C)CCOP(=O)(O)O [O-Phosphocholine]	0.17
COc1cc(C=CC=O)ccc1O [4-Hydroxy-3-methoxycinnamaldehyde]	1.52
NC(=O)NCCC[C@H](N)C(=O)O [L-Citrulline]	0.18
O=P(O)(O)OCC(O)CO (racemic) [rac-Glycerol 3-phosphoate disodium salt hexahydrate]	0.16
O=C(O)CNC(=O)Cc1ccccc1 [Phenaceturic acid]	1.36
C[N+](C)(C)C[C@H](O)CC(=O)[O-] [L-Carnitine hydrochloride]	0.18
CC1OC(Oc2c(-c3ccc(O)c(O)c3)oc3cc(O)cc(O)c3c2=O)C(O)C(O)C1O (stereo unspecified) [Quercitrin]	1.46
COc1cc(-c2[o+]c3cc(O)cc(O)c3cc2OC2OC(CO)C(O)C(O)C2O)cc(O)c1O (stereo not drawn) [Petunidin-3-O-beta-glucopyranoside]	1.22
CC(=O)NC(CC(=O)O)C(=O)O (racemic) [N-Acetyl-DL-aspartic acid]	0.31
OC1COC(OC2COC(O)C(O)C2O)C(O)C1O (stereo unspecified) [Xylobiose]	0.18
COc1cc2c(cc1O)C1Cc3ccc(OC)c(O)c3CN1CC2 (stereo unspecified) [Scoulerin]	1.37
O=C(O)c1ccc(O)cc1 [4-Hydroxybenzoate]	1.25
Nc1ncn[nH]1 [3-Amino-1,2,4-triazole]	0.18
